This test concerns the target T1, human A3AR (Homo sapiens, UniProt P0DMS8).
T1 construct: expressed in transfected cells
T1 sequence (P0DMS8 1-318): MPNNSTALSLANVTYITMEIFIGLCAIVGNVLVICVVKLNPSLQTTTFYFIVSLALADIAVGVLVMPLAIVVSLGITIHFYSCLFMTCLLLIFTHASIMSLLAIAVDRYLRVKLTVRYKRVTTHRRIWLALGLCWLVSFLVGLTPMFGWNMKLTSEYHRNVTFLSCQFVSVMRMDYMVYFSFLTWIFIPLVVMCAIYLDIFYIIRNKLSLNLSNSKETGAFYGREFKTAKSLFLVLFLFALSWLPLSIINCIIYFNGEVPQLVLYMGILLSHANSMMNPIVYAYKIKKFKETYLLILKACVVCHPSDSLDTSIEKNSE
The test can be described thus: LOPAC library primary screen: single concentration (10 μM) inhibition of 25 nM CA200645 binding, PHERAstar FS.

Where a name gives a salt, the structure may show the parent alone. Read-outs that look alike come from different tables or passages of the source.

On to `CCCn1c(=O)c2[nH]c(C3CCCC3)nc2n(CCCOC(=O)c2ccc(S(=O)(=O)F)cc2)c1=O` [FSCPX, reference compound], for which the “% 25 nM CA200645 binding” value was 57.1 ± 9.1%. Besides, the “% Total CA200645 binding” value (% of 25 nM CA200645 binding in the presence of 10 μM compound, LOPAC full screen, A3AR CHO cells) is recorded as 57.5 ± 23.0%.

For `Cc1cn([C@H]2C=C[C@@H](CO)O2)c(=O)[nH]c1=O` [2',3'-didehydro-3'-deoxythymidine], the “% 25 nM CA200645 binding” value turned out to be 82.1 ± 11.9%.

Regarding `C[C@]12CCC(=O)C=C1CC[C@@H]1[C@@H]2[C@@H](O)C[C@@]2(C)[C@H]1CC[C@]2(O)C(=O)CO` [Hydrocortisone], the “% 25 nM CA200645 binding” value is 84.4 ± 24.1%.

As for `Br.C=CCN1CCc2c(cc(O)c(O)c2Br)[C@@H](c2ccccc2)C1` [R(+)-6-Bromo-APB hydrobromide], the “% 25 nM CA200645 binding” value was determined as 77.8 ± 20.1%.

As for `O=C1Cc2cc(CCN3CCN(c4nsc5ccccc45)CC3)c(Cl)cc2N1` [Ziprasidone hydrochloride monohydrate], the “% 25 nM CA200645 binding” value stood at 84.7 ± 3.4%.

`CC(=O)NCCc1c[nH]c2ccc(O)cc12` [N-Acetyl-5-hydroxytryptamine]: the “% 25 nM CA200645 binding” value turned out to be 100.5 ± 7.6%.

Turning to `COC(=O)Nc1nc2ccc(C(=O)c3cccs3)cc2[nH]1` [Nocodazole], the “% 25 nM CA200645 binding” value is listed as 79.0 ± 5.7%.

`Cn1c(=O)c2c(ncn2C)n(C)c1=O` [caffeine, reference compound]: the “% 25 nM CA200645 binding” value came out at 95.8 ± 4.7%.

Consider `CS(=O)(=O)c1cccc(CNc2nc(Nc3ccc4c(c3)CCC(=O)N4)ncc2C(F)(F)F)c1` [PF-573228], for which the “% 25 nM CA200645 binding” value is 54.7 ± 30.2%.

Turning to `O=C(Nc1cccc(C(=O)Nc2ccc(S(=O)(=O)O)c3cc(S(=O)(=O)O)cc(S(=O)(=O)O)c23)c1)Nc1cccc(C(=O)Nc2ccc(S(=O)(=O)O)c3cc(S(=O)(=O)O)cc(S(=O)(=O)O)c23)c1` [NF 023], the “% 25 nM CA200645 binding” value was found to be 83.8 ± 25.8%.

`COc1cc2c(CCNC(C)=O)c[nH]c2cc1O` [6-Hydroxymelatonin]: the “% 25 nM CA200645 binding” value is on record as 94.1 ± 9.8%.

Regarding `N[C@H](C(=O)O)[C@H]1C[C@@H]1C(=O)O`, the “% 25 nM CA200645 binding” value came to 107.7 ± 15.6%.

For the molecule `O=c1[nH]c(=S)[nH]c(-c2ccccc2)c1Cc1c(O)ccc2ccccc12` [Cambinol], the “% 25 nM CA200645 binding” value was 94.8 ± 8.3%.

Regarding `Cc1cccc(C#Cc2ccccc2)n1.Cl`, the “% 25 nM CA200645 binding” value is 95.8 ± 6.2%.

For the molecule `C#CC(N)CCC(=O)O` (stereo not shown) [gamma-Acetylinic GABA], the “% 25 nM CA200645 binding” value stood at 97.6 ± 3.0%.

`CC(=O)[C@H]1CC[C@H]2[C@@H]3CC[C@H]4C[C@](C)(O)CC[C@]4(C)[C@H]3CC[C@]12C` [Ganaxolone]: the “% 25 nM CA200645 binding” value stood at 83.6 ± 13.4%.

Turning to `Cc1cc(O)c2c(c1)C(=O)c1cc(O)cc(O)c1C2=O` [Emodin], the “% 25 nM CA200645 binding” value came out at 52.8± 4.4%.

Regarding `C[N+](C)(C)CCOC(N)=O` [Carbachol], the “% 25 nM CA200645 binding” value was found to be 103.1 ± 3.5%.

Consider `NC1=NCC2c3ccccc3Cc3ccccc3N12` (stereo not shown) [Epinastine hydrochloride], for which the “% 25 nM CA200645 binding” value was 96.6 ± 14.2%.

Turning to `Nc1nnc(-c2cccc(Cl)c2Cl)c(N)n1` [Lamotrigine], the “% 25 nM CA200645 binding” value stood at 93.6 ± 9.2%.

`COc1cc2nc(N3CCCN(C)CC3)nc(NC3CCN(Cc4ccccc4)CC3)c2cc1OC` [BIX 01294 trihydrochloride hydrate]: the “% 25 nM CA200645 binding” value turned out to be 97.9 ± 21.2%.

Regarding S-Nitroso-N-acetylpenicillamine, the “% 25 nM CA200645 binding” value is on record as 127.5 ± 10.1%.

On to `CNC1(C)C2CCC(C2)C1(C)C` (stereo not shown) [Mecamylamine hydrochloride], for which the “% 25 nM CA200645 binding” value was found to be 65.4 ± 10.0%.

For `NS(=O)(=O)c1ccc(-n2nc(C(F)(F)F)cc2-c2ccc(Cl)cc2)cc1` [SC-236], the “% 25 nM CA200645 binding” value is listed as 90.8 ± 15.2%.

On to `C[C@H]1C[C@H]2[C@@H]3CCC4=CC(=O)C=C[C@]4(C)[C@@]3(F)[C@@H](O)C[C@]2(C)[C@@]1(O)C(=O)CO` [Betamethasone], for which the “% 25 nM CA200645 binding” value amounted to 77.0 ± 7.6%.

Consider `CCCCNc1ccc(C(=O)OCCN(C)C)cc1` [Tetracaine hydrochloride], for which the “% 25 nM CA200645 binding” value is listed as 85.8 ± 26.7%.

For `Cn1cnc2c1c(=O)[nH]c(=O)n2C` [Theobromine], the “% 25 nM CA200645 binding” value was 101.7 ± 4.5%.

For `c1ccc(C2CN3CCSC3=N2)cc1` (stereo not shown) [Tetramisole hydrochloride], the “% 25 nM CA200645 binding” value is 95.5 ± 22.8%.

Regarding `CCN(CC)CCNC(=O)c1ccc(N)cc1` [Procainamide hydrochloride], the “% 25 nM CA200645 binding” value is listed as 89.6 ± 33.7%.

As for `NCC(O)(CS(=O)(=O)O)c1ccc(Cl)cc1` (stereo not shown) [2-Hydroxysaclofen], the “% 25 nM CA200645 binding” value was found to be 92.7 ± 0.2%.

`O=C(O)c1cc([N+](=O)[O-])ccc1NCCCc1ccccc1`: the “% 25 nM CA200645 binding” value turned out to be 120.8 ± 13.5%.

As for `CC(=O)O[C@]1(C(C)=O)CC[C@H]2[C@@H]3C=C(Cl)C4=CC(=O)[C@@H]5C[C@@H]5[C@]4(C)[C@H]3CC[C@@]21C` [Cyproterone acetate], the “% 25 nM CA200645 binding” value came out at 95.6 ± 2.1%.

Turning to `CC[C@@H]1C(=O)OC[C@@H]1Cc1cncn1C` [Pilocarpine nitrate], the “% 25 nM CA200645 binding” value is recorded as 92.9 ± 2.4%.

On to `Cl.NC1(C(=O)O)CC1`, for which the “% 25 nM CA200645 binding” value amounted to 88.3 ± 14.5%.

Consider `C[C@]12CC[C@@H]3c4ccc(O)cc4CC[C@H]3[C@@H]1CC[C@@H]2O` [beta-Estradiol], for which the “% 25 nM CA200645 binding” value is given as 87.8 ± 13.4%.

Take `Cl.NCC(O)c1ccc(O)cc1` (racemic) [(±)-Octopamine hydrochloride]: the “% 25 nM CA200645 binding” value is given as 103.0 ± 1.6%.

Take `CC(N)(Cc1ccc(O)cc1)C(=O)O` (racemic) [DL-alpha-Methyl-p-tyrosine]: the “% 25 nM CA200645 binding” value came out at 102.4 ± 5.8%.

In the case of `CCCN(CCC)C(=O)C(CCC(=O)O)NC(=O)c1ccccc1` (stereo not shown) [Proglumide], the “% 25 nM CA200645 binding” value was 107.1 ± 0.6%.

`Cl.Nc1ccn([C@@H]2O[C@H](CO)[C@@H](O)[C@@H]2O)c(=O)n1`: the “% 25 nM CA200645 binding” value was 98.1 ± 3.7%.

For the molecule `CCC(C)N(C)C(=O)c1cc2ccccc2c(-c2ccccc2Cl)n1` (stereo not shown) [PK 11195], the “% 25 nM CA200645 binding” value is on record as 93.2 ± 6.1%.

As to `CC(N)C(=O)OC(C)(C)Cc1ccc(Cl)cc1` (stereo not shown) [Alaproclate hydrochloride], the “% 25 nM CA200645 binding” value was determined as 104.8 ± 8.1%.

For `N=C(N)SCCc1cnc[nH]1` [Imetit dihydrobromide], the “% 25 nM CA200645 binding” value came out at 99.9 ± 2.2%.

Consider `Cl.Cn1ccc2cc(NC(=O)Nc3cccnc3)ccc21` [SB 200646 hydrochloride], for which the “% 25 nM CA200645 binding” value is reported as 81.7 ± 19.9%.

In the case of `Nc1ncnc2n[nH]c(Nc3ccc(F)cc3)c12` [CGP 57380], the “% 25 nM CA200645 binding” value was found to be 81.2 ± 23.0%.

Turning to `CC[N+](C)(C)c1cccc(O)c1` [Edrophonium chloride], the “% 25 nM CA200645 binding” value was 88.1 ± 20.0%.

With `CCN1C(=O)C=CC1=O` [N-Ethylmaleimide], the “% 25 nM CA200645 binding” value worked out at 99.8 ± 13.3%.

For the molecule `CNc1ccc2oc(C[C@H]3O[C@@]4(CC[C@H]3C)O[C@H]([C@H](C)C(=O)c3ccc[nH]3)[C@H](C)C[C@H]4C)nc2c1C(=O)O` [Calcimycin], the “% 25 nM CA200645 binding” value is reported as 38.9 ± 3.3%.

As for `N#C/C(=C\c1ccc(O)c(O)c1)C(=O)c1ccc(O)c(O)c1` [Tyrphostin AG 538], the “% 25 nM CA200645 binding” value turned out to be 90.2 ± 14.0%.

With `Cc1cc2c(C(C)C)c(O)c(O)c(C=O)c2c(O)c1-c1c(C)cc2c(C(C)C)c(O)c(O)c(C=O)c2c1O` [Gossypol], the “% 25 nM CA200645 binding” value is on record as 54.1 ± 12.3%.

With `Cl.Fc1ccc(CN(C2=NCCN2)c2c(Cl)cccc2Cl)cc1` [IMID-4F hydrochloride], the “% 25 nM CA200645 binding” value worked out at 97.3 ± 5.7%.

As for `O=C1CCC(N2C(=O)c3ccccc3C2=O)C(=O)N1` (racemic) [(±)-Thalidomide], the “% 25 nM CA200645 binding” value amounted to 108.7 ± 11.6%.

As for S(-)-UH-301 hydrochloride, the “% 25 nM CA200645 binding” value came out at 106.6 ± 12.1%.

As for LY-367,265, the “% 25 nM CA200645 binding” value is on record as 64.8 ± 25.8%.

For the molecule `COc1cc(SC)ccc1C(=O)N1CCC(Cc2ccccc2)CC1` [JX401], the “% 25 nM CA200645 binding” value is 84.6 ± 8.9%.

Regarding `O=C(Nc1ccc([N+](=O)[O-])cc1Cl)c1cc(Cl)ccc1O` [Niclosamide], the “% 25 nM CA200645 binding” value came out at 101.6 ± 22.5%.

Regarding `Cn1cnc2c(NCc3ccccc3)nc(NCCO)nc21` [Olomoucine], the “% 25 nM CA200645 binding” value was 97.0 ± 10.1%.

As for `C[C@@H](O)[C@H]1C(=O)N2C(C(=O)O)=C(SCCN=CN)C[C@H]12` [Imipenem monohydrate], the “% 25 nM CA200645 binding” value came out at 96.8 ± 2.2%.

For the molecule `NCCCC(=O)O` [GABA], the “% 25 nM CA200645 binding” value worked out at 95.6 ± 8.2%.

`CN(C(=O)Cc1ccc(Cl)c(Cl)c1)C(CN1CCCC1)c1cccc(OCC(=O)O)c1.Cl` (stereo not shown) [ICI 204,448 hydrochloride]: the “% 25 nM CA200645 binding” value was 104.6 ± 7.5%.

Consider `Nc1nc(Cl)nc2c1ncn2[C@@H]1O[C@H](CO)[C@@H](O)[C@H]1O` [2-Chloroadenosine], for which the “% 25 nM CA200645 binding” value stood at 51.0 ± 6.7%.

Consider `CCS(=O)(=O)Nc1cccc(C(=C2CCCCC2)c2cnc[nH]2)c1` [A-315456], for which the “% 25 nM CA200645 binding” value turned out to be 92.6 ± 5.2%.

As to `COC(=O)C1=CCCN(C)C1` [Arecoline hydrobromide], the “% 25 nM CA200645 binding” value is given as 81.8 ± 27.0%.

As to `C[N+](C)(C)CC(=O)O` [Betaine hydrochloride], the “% 25 nM CA200645 binding” value came to 78.7 ± 15.6%.

As to `Cc1cccc(C)c1N=C1NCCCS1` [Xylazine hydrochloride], the “% 25 nM CA200645 binding” value was determined as 106.3 ± 5.8%.

For `COc1cc(C(O)CN)ccc1O.Cl` (racemic) [(±)-Normetanephrine hydrochloride], the “% 25 nM CA200645 binding” value (compounds tested at 10 µM, % of control wells (1% DMSO and 25 nM CA200645), […], mean ± SD, three experiments in duplicate) was found to be 95.5 ± 24.8%.

As for `CN(C)c1ccc(/C=C2\C(=O)Nc3ccccc32)cc1` [SU 4312], the “% 25 nM CA200645 binding” value is given as 53.2 ± 16.7%.
